Reference: publication PMC6225228, “Design, Synthesis and Evaluation of N-pyrazinylbenzamides as Potential Antimycobacterial Agents” (Molecules : A Journal of Synthetic Chemistry and Natural …, 2018)
In brackets after ≈: the same amount, converted by molar mass. Where two headings read alike, the source gives them in different places.

How the values were obtained:
[1] = tested on: Aspergillus fumigatus 231; assay: Antifungal microdilution broth, AF; assay type: cell-based; conditions: read-out: MIC AF
[2] = tested on: Pseudomonas aeruginosa CCM 1961; assay: Antibacterial microdilution broth, PA; assay type: cell-based; conditions: Pseudomonas aeruginosa, read-out: MIC PA
[3] = tested on: Escherichia coli CCM 4517; assay: Antibacterial microdilution broth, EC; assay type: cell-based; conditions: Escherichia coli, read-out: MIC EC
Candida krusei E28 = assay: Antifungal microdilution broth, CK; assay type: cell-based; conditions: read-out: MIC CK
[4] = tested on: Mycobacterium tuberculosis H37Rv CNCTC My 331/88 (ATCC 27294); assay: Antimycobacterial microdilution MABA, M. tuberculosis; assay type: cell-based; conditions: for Mtb H37Rv ATCC 27294 MIC: Middlebrook 7H9 with OADC growth supplement, pH = 6.6, MABA; for MIC: Mycobacterium tuberculosis
Candida tropicalis 156 = assay: Antifungal microdilution broth, CT; assay type: cell-based; conditions: read-out: MIC CT
[5] = tested on: Enterococcus sp. J 14365/08; assay: Antibacterial microdilution broth, EF; assay type: cell-based; conditions: Enterococcus, read-out: MIC EF
Trichosporon asahii 1188 = assay: Antifungal microdilution broth, TA; assay type: cell-based; conditions: read-out: MIC TA
[6] = tested on: M. kansasii CNCTC My 235/80 (ATCC 12478); assay: Antimycobacterial microdilution MABA, M. kansasii; assay type: cell-based, Mycobacterium kansasii; conditions: for MIC: Mycobacterium kansasii, ATCC12478, pH 6.6, read-out: M. kans. ATCC 12478 MIC, Middlebrook 7H9 with OADC, pH 6.6, MABA
[7] = tested on: Staphylococcus aureus CCM 4516/08; assay: Antibacterial microdilution broth, SA; assay type: cell-based
[8] = tested on: Candida albicans ATCC 44859; assay: Antifungal microdilution broth, CA; assay type: cell-based; conditions: read-out: MIC CA
[9] = tested on: Staphylococcus aureus H 5996/08 methicillin resistant; assay: microbe, parasite or virus in culture; assay type: cell-based; conditions: for MIC: Staphylococcus aureus, MRSA, read-out: MIC MRSA
Candida glabrata 20/I = assay: Antifungal microdilution broth, CG; assay type: cell-based; conditions: read-out: MIC CG
[10] = tested on: eight fungal strains of clinical importance; assay: Antifungal microdilution, all tested fungal strains; assay type: cell-based
[11] = tested on: Mycobacterium smegmatis CCM 4622 (ATCC 607); assay: Antimycobacterial microdilution, M. smegmatis; assay type: cell-based; conditions: Mycolicibacterium smegmatis, read-out: M. smeg. ATCC 607 MIC
[12] = tested on: M. avium ssp. avium CNCTC My 80/72 (ATCC 15769); assay: Antimycobacterial microdilution MABA, M. avium; assay type: cell-based, Mycobacterium avium; conditions: for MIC: Mycobacterium avium, ATCC15769, pH 6.6, read-out: M. avium ATCC 15769 MIC
[13] = tested on: Lichtheimia corymbifera 272; assay: Antifungal microdilution broth, LC; assay type: cell-based; conditions: read-out: MIC LC
[14] = tested on: Staphylococcus epidermidis H 6966/08; assay: Antibacterial microdilution broth, SE; assay type: cell-based; conditions: Staphylococcus epidermidis, read-out: MIC SE
[15] = tested on: Trichophyton interdigitale 445; assay: Antifungal microdilution broth, TI; assay type: cell-based; conditions: read-out: MIC TI
[16] = Confirmatory prolonged HepG2 cytotoxicity, CellTox Green Cytotoxicity Assay; conditions: human, HepG2 cells
[17] = human, HepG2 cells
[18] = Aspergillus fumigatus, 231, 24 h
[19] = Aspergillus fumigatus, 231, 48 h
[20] = read-out: Mtb H37Rv ATCC 27294 MIC, Middlebrook 7H9 with OADC growth supplement, pH = 6.6, MABA
[21] = Trichosporon asahii, 1188, 24 h
[22] = Trichosporon asahii, 1188, 48 h
[23] = Staphylococcus aureus, CCM4516, 24 h, read-out: MIC SA, 24 h
[24] = Staphylococcus aureus, CCM4516, 48 h, read-out: MIC SA, 48 h
[25] = Candida albicans, ATCC44859, 24 h
[26] = Candida albicans, ATCC44859, 48 h
[27] = Nakaseomyces glabratus, 20/I, 24 h
[28] = Nakaseomyces glabratus, 20/I, 48 h
[29] = Lichtheimia corymbifera, 272, 24 h
[30] = Lichtheimia corymbifera, 272, 48 h
[31] = Trichophyton interdigitale, 445, 72 h
[32] = Trichophyton interdigitale, 445, 120 h
[33] = Middlebrook 7H9 with OADC, pH 6.6, MABA

SMILES: O=C(Nc1cnc(Cl)cn1)c1ccc(O)cc1 [Compound 2d]
- melting point: 210.9 to 212.6 °C
- MIC [1, 18]: > 500 µM
- MIC [1, 19]: > 500 µM
- MIC ([2]; CCM1961, 72 h): > 500 µM
- MIC ([2]; CCM1961, 120 h): > 500 µM
- MIC ([3]; CCM4517, 24 h): > 500 µM
- MIC ([3]; CCM4517, 48 h): > 500 µM
- MIC (Candida krusei E28; Pichia kudriavzevii, E28, 24 h): > 500 µM
- MIC (Candida krusei E28; Pichia kudriavzevii, E28, 48 h): > 500 µM
- Mtb H37Rv ATCC 27294 MIC [4]: >100 µg/mL
- MIC [4, 20]: > 100 µg/mL
- MIC (Candida tropicalis 156; Candida tropicalis, 156, 24 h): > 500 µM
- MIC (Candida tropicalis 156; Candida tropicalis, 156, 48 h): > 500 µM
- MIC ([5]; SP.J14365/08, 24 h): > 500 µM
- MIC ([5]; SP.J14365/08, 48 h): > 500 µM
- MIC (Trichosporon asahii 1188; [21]): > 500 µM
- MIC (Trichosporon asahii 1188; [22]): > 500 µM
- MIC [6]: > 100 µg/mL
- MIC [7, 23]: 31.2 µM (≈ 7.8 µg/mL)
- MIC [7, 24]: 31.2 µM (≈ 7.8 µg/mL)
- MIC [8, 25]: 500 µM (≈ 125 µg/mL)
- MIC [8, 26]: > 500 µM
- MIC MRSA ([9]; 24 h): >500 µM
- MIC MRSA ([9]; 48 h): >500 µM
- MIC ([9]; 24 h): > 500 µM
- MIC ([9]; 48 h): > 500 µM
- MIC (Candida glabrata 20/I; [27]): > 500 µM
- MIC (Candida glabrata 20/I; [28]): > 500 µM
- MIC ([10]; Trichophyton interdigitale, read-out: MIC, all tested fungal strains): ≥ 500 µM
- MIC [11]: ≥ 500 µg/mL
- MIC [12]: > 100 µg/mL
- MIC [13, 29]: > 500 µM
- MIC [13, 30]: > 500 µM
- MIC ([14]; H6966/08, 24 h): 500 µM (≈ 125 µg/mL)
- MIC ([14]; H6966/08, 48 h): 500 µM (≈ 125 µg/mL)
- MIC [15, 31]: > 500 µM
- MIC [15, 32]: > 500 µM

SMILES: CCc1ccc(C(=O)Nc2cnc(Cl)cn2)cc1 [Compound 2i]
- MIC [1, 18]: > 125 µM
- MIC [1, 19]: > 125 µM
- MIC ([2]; CCM1961, 72 h): > 125 µM
- MIC ([2]; CCM1961, 120 h): > 125 µM
- MIC ([3]; CCM4517, 24 h): > 125 µM
- MIC ([3]; CCM4517, 48 h): > 125 µM
- IC50 at 24 h [16]: 264 µM
- IC50 at 48 h [16]: 250 µM
- MIC (Candida krusei E28; Pichia kudriavzevii, E28, 24 h): > 125 µM
- MIC (Candida krusei E28; Pichia kudriavzevii, E28, 48 h): > 125 µM
- Mtb H37Rv ATCC 27294 MIC [4]: 3.13 µg/mL
- MIC [4, 20]: 3.13 to 6.25 µg/mL
- MIC ([4]; read-out: Mtb MIC, molar concentration): 12 µM
- MIC (Candida tropicalis 156; Candida tropicalis, 156, 24 h): > 125 µM
- MIC (Candida tropicalis 156; Candida tropicalis, 156, 48 h): > 125 µM
- MIC ([5]; SP.J14365/08, 24 h): > 125 µM
- MIC ([5]; SP.J14365/08, 48 h): > 125 µM
- MIC (Trichosporon asahii 1188; [21]): > 125 µM
- MIC (Trichosporon asahii 1188; [22]): > 125 µM
- M. kans. ATCC 12478 MIC [6, 33]: >100 µg/mL
- MIC [6]: > 100 µg/mL
- MIC ([7]; 24 h, read-out: MIC SA): >125 µM
- MIC [7, 23]: > 125 µM
- MIC [7, 24]: > 125 µM
- MIC [8, 25]: > 125 µM
- MIC [8, 26]: > 125 µM
- IC50 at 24 h [17]: > 250 µM
- MIC ([9]; 24 h): > 125 µM
- MIC ([9]; 48 h): > 125 µM
- MIC (Candida glabrata 20/I; [27]): > 125 µM
- MIC (Candida glabrata 20/I; [28]): > 125 µM
- MIC [11]: ≥ 500 µg/mL
- M. avium ATCC 15769 MIC [12, 33]: >100 µg/mL
- MIC [12]: > 100 µg/mL
- MIC [13, 29]: > 125 µM
- MIC [13, 30]: > 125 µM
- MIC ([14]; H6966/08, 24 h): > 125 µM
- MIC ([14]; H6966/08, 48 h): > 125 µM
- MIC [15, 31]: > 125 µM
- MIC [15, 32]: > 125 µM

SMILES: C[C@@H]1[C@H](O)[C@@H](C)/C=C/C=C/CC/C=C/C=C/C=C/C=C/C(O[C@H]2O[C@H](C)[C@@H](O)[C@H](N)[C@@H]2O)CC2O[C@](O)(CC(O)C(O)CCC(O)CC(O)CC(O)CC(=O)O[C@H]1C)CC(O)C2C(=O)O (stereo partly shown) [NYS, nystatin, reference compound]
- MIC ([1]; 24 h): 1.95 µM (≈ 1.81 µg/mL)
- MIC ([1]; 48 h): 3.9 µM (≈ 3.61 µg/mL)
- MIC (Candida krusei E28; 24 h): 1.95 µM (≈ 1.81 µg/mL)
- MIC (Candida krusei E28; 48 h): 3.9 µM (≈ 3.61 µg/mL)
- MIC (Candida tropicalis 156; 24 h): 1.95 µM (≈ 1.81 µg/mL)
- MIC (Candida tropicalis 156; 48 h): 3.9 µM (≈ 3.61 µg/mL)
- MIC (Trichosporon asahii 1188; 24 h): 1.95 µM (≈ 1.81 µg/mL)
- MIC (Trichosporon asahii 1188; 48 h): 1.95 µM (≈ 1.81 µg/mL)
- MIC ([8]; 24 h): 0.98 µM (≈ 0.908 µg/mL)
- MIC ([8]; 48 h): 1.95 µM (≈ 1.81 µg/mL)
- MIC (Candida glabrata 20/I; 24 h): 1.95 µM (≈ 1.81 µg/mL)
- MIC (Candida glabrata 20/I; 48 h): 3.9 µM (≈ 3.61 µg/mL)
- MIC, all tested fungal strains ([10]; read after 24 h (Trichophyton interdigitale 72 h)): 0.98 to 15.62 µM
- MIC ([13]; 24 h): 15.62 µM (≈ 14.5 µg/mL)
- MIC ([13]; 48 h): 31.25 µM (≈ 28.9 µg/mL)
- MIC ([15]; 72 h): 3.9 µM (≈ 3.61 µg/mL)
- MIC ([15]; 120 h): 7.81 µM (≈ 7.23 µg/mL)
